Results taken from patent publication US20090232735A1, “USE OF FRUCTOSE-BASED THERAPIES FOR THE TREATMENT OF CANCER” (CEDARS-SINAI MEDICAL CENTER, priority 2005, published 2009).

What was measured:
[1] = test system: ER negative MDA-MB231 breast cancer cells; test: Breast cancer cell proliferation (MTT assay), MDA-MB231; type: cell-based, human
Method: Estrogen receptor (ER) positive MCF-7, and ER negative MDA-MB231 cells were plated in 5 mM fructose or glucose for times between 8-72 h, and proliferative rates measured using MTT assay. *, p<0.05; **, p<0.01.
FIG. 5 depicts fructose-mediated increased breast cancer proliferation in accordance with an embodiment of the present invention. ER positive MCF-7, and ER negative MDA-MB231 cells were plated in a range of fructose or glucose concentrations (5-25 mM) for 72 h, after which proliferative rates were measured using an MTT assay. *, p<0.05 for concentrations between 5-25 mM fructose versus glucose.
Standard media for breast cancer cell culture contain either 5-7 mM (low) and 12-25 mM (high) glucose concentrations. Estrogen receptor (ER) positive MCF-7, and ER negative MDA-MB231 cells were cultured overnight in 2 mM glucose standard DMEM medium containing 10% fetal bovine serum prior to incubation for periods between 8, and 72 hours in standard DMEM medium containing 10% fetal bovine serum, and 5 mM glucose or 5 mM fructose.
Proliferative rates were then measured in replicate (minimum of 6) aliquot wells of the breast cancer cells grown in glucose, or fructose containing medium. […] In separate experiments, proliferative rates of the MCF-7, and MDA-MB231 breast cancer cells were compared following culture in a range of fructose, and glucose concentrations (2-25 mM) for 72 hours.

transketolase (TKK) = test: Transketolase expression by Western blot in PANC-1 cells; type: cell-based, human; details: PANC-1, 5.5 mM fructose, 24 h and 48 h
Method: FIG. 33 depicts Western blot analysis of transketolase expression in pancreatic cancer PANC-1 cells following incubation in 2 mM glucose (lanes 1 & 4), 5.5 mM glucose (lanes 2 & 5), and 5.5 mM fructose for 24 h, and 48 h, respectively, in accordance with an embodiment of the present invention. Quantitation of TKK protein levels is depicted in the lower panel.
The inventors believe that fructose-treatment of pancreatic cancer cells led to an increase in TKK-driven nucleic acid synthesis, and thus fructose-treatment would result in an increase in either PANC-1 TKK expression and/or activity in comparison to equivalent glucose concentrations. Western blot analysis on protein lysates derived from fructose-, and glucose-treated PANC-1 cells were performed (5.5 mM fructose, and glucose for 24, and 48 h as per previous protocol) using a specific TKK antibody, and compared TKK expression in the fructose-, and glucose-treated PANC-1 cells. […] After gentle mixing the absorbance of the mixture was measured at 10 min intervals for 2 h at 340 nm. Transketolase activity was then derived from the difference in absorbance at 10, and 80 minutes, and expressed as nmol/min/million cells. […] Pancreatic cancer proliferation rates were then measured using the MTS assay (FIG. 35).

## O=C(CO)[C@@H](O)[C@H](O)[C@H](O)CO [fructose]
[1]; MDA-MB231, 5 mM fructose vs 5 mM glucose, 8-72 h
  proliferative rates in fructose compared to glucose: higher proliferative rates
[1]; MDA-MB231, 72 hours, 5 mM fructose vs 5-fold higher glucose (25 mM)
  proliferative rates in 5 mM fructose compared to 25 mM glucose: higher proliferative rates
Transketolase (TKK)
  TKK levels higher than 5.5 mM glucose-treated cells: ~2 fold
